Values quoted from earlier work in patent US8529954B2, “Composition based on gamma-hydroxybutyric acid” (Debregeas et Associes Pharma, priority 2008, dated 2013).
Structures can show the parent of a compound that is named as a salt.

Tests used:
[1] = approximately

SMILES | stability in an acidic environment | maximum peak after its administration (time of peak) ([1]; absorbed by the gastroenteric system) | half life [1] | time in which it is eliminated [1]
O=C(O)CCCO [GHB, Gamma-hydroxybutyric acid] | unstable | – | – | –
O=C(O)CCCO [sodium hydroxybutyrate, sodium salt of 4-hydroxybutyric acid] | – | 30 to 45 min | 20 to 25 min | 4 to 5 h
